According to the OPERA property sets (Mansouri et al. 2018):

Row | SMILES | logP
1 | c1cc(-c2ccncc2)ccn1 | 1.28
2 | c1ccc2c(c1)ccc1c2ccc2c3ccccc3ccc21 | 7.11
3 | c1ccc2cc3c(ccc4c5ccccc5ccc34)cc2c1 | 7.11
4 | c1ccc2c(c1)c1cccc3ccc4cccc2c4c31 | 6.44
5 | c1ccc2c(c1)cc1ccc3cccc4c5ccccc5c2c1c34 | 7.71
6 | c1csc(-c2cccs2)c1 | 3.75
7 | c1ccc(-c2cccc(-c3ccccn3)n2)nc1 | 1.96
8 | c1ccc(-c2c3ccccc3c(-c3ccccc3)c3ccccc23)cc1 | 8.46
9 | c1ccc2cc3cc4cc5ccccc5cc4cc3cc2c1 | 7.11
10 | c1ccc2c(c1)ccc1c2ccc2ccc3ccccc3c21 | 7.11
11 | c1ccc(-c2ccccn2)nc1 | 1.5
12 | c1ccc2cc3c(cc2c1)oc1ccccc13 | 5.05
13 | c1ccc2cc3c(cc2c1)sc1ccccc13 | 5.34
14 | c1cc2ccc3ccc4ccc5ccc6ccc1c1c2c3c4c5c61 | 7.64
15 | c1ccc2c(c1)Cc1ccccc1O2 | 4.23
16 | c1cc2ccc3cc4cccc5ccc6cc(c1)c2c3c6c54 | 7.04
17 | c1ccc2c(c1)Sc1ccccc1S2 | 4.47
18 | c1ccc2c(c1)c1ccccc1c1c3ccccc3c3ccccc3c21 | 8.39
